In brackets after ≈: the same amount, converted by molar mass. Read-outs that look alike come from different tables or passages of the source.
Columns and labels:
MRSA (2658 RCMB) = assay: MIC against MRSA (2658 RCMB), broth dilution; type: cell-based, Staphylococcus aureus
Method in brief: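 Broth dilution in cation-adjusted Mueller-Hinton broth with an inoculum of about 5×10^5 CFU/mL (from a 0.5 McFarland suspension), using triplicate serial dilutions. MIC was the lowest concentration with no visible growth by visual inspection, reported as the mean of triplicates.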

[1] = Metabolic stability in human liver microsomes; type: in vitro ADME; conditions: pH 7.4, human liver microsomes
Experimental: The tested compounds were incubated in duplicate with human liver microsomes at 37° C. The reaction contained microsomal protein in 100 mM potassium phosphate, 2 mM NADPH, 3 mM MgCl2, pH 7.4. A control was run for each test agent omitting NADPH to detect NADPH-free degradation. At 0, 10, 20, 40, and 60 minutes, an aliquot was removed from each experimental and control reaction and mixed with an equal volume of ice-cold Stop Solution (methanol containing haloperidol, diclofenac, or other internal standard). Stopped reactions are incubated at least ten minutes at −20° C., and an additional volume of water was added. The samples were centrifuged to remove precipitated protein, and the supernatants were analyzed by LC/MS/MS to quantitate the remaining parent. Data are converted to % remaining by dividing by the time zero concentration value. Data are fit to a first-order decay model to determine half-life. Intrinsic clearance is calculated from the half-life and the protein concentrations: CLint=ln(2)/(T1/2 [microsomal protein]).

NRS119 (MRSA) = assay: MIC/MBC clinical isolate panel (Table 3); type: cell-based, S. aureus; conditions: Staphylococcus aureus, Table 3, NRS119 (MRSA)
Experimental: (§1) Bacteria were cultured in cation-adjusted Mueller Hinton broth in a 96-well plate. Compounds, using triplicate samples, were added to the plate and serially diluted. […] Plates were visually inspected and the MIC was categorized as the concentration at which no visible growth of bacteria was observed. The average of triplicate MIC determinations is reported.
(§2) A bacterial solution equivalent to 0.5 McFarland standard was prepared and diluted in cation-adjusted Mueller-Hinton broth (CAMHB) to achieve a bacterial concentration of about 5×10^5 CFU/mL and seeded in 96-well plates. Enterococcus faecium was diluted in brain heart infusion broth. Enterococcus faecalis, Streptococcus pneumonia and Listeria monocytogenes were diluted in tryptone soya broth (TSB).

NRS123 (MRSA USA400) = assay: MIC/MBC clinical isolate panel (Table 3); type: cell-based, S. aureus; conditions: Staphylococcus aureus, Table 3, NRS123 (MRSA USA400)
Experimental: as §1, §2

NRS382 (MRSA USA100) = assay: MIC/MBC clinical isolate panel (Table 3); type: cell-based, S. aureus; conditions: Staphylococcus aureus, Table 3, NRS382 (MRSA USA100)
Experimental: as §1, §2

NRS383 (MRSA USA200) = assay: MIC/MBC clinical isolate panel (Table 3); type: cell-based, S. aureus; conditions: Staphylococcus aureus, Table 3, NRS383 (MRSA USA200)
Experimental: as §1, §2

NRS384 (MRSA USA300) = assay: MIC/MBC clinical isolate panel (Table 3); type: cell-based, S. aureus; conditions: Staphylococcus aureus, Table 3, NRS384 (MRSA USA300)
Experimental: as §1, §2

VRSA10 = assay: MIC/MBC clinical isolate panel (Table 3); type: cell-based, S. aureus; conditions: Staphylococcus aureus, Table 3, VRSA10
Experimental: as §1, with “MRSA clinical isolates, and vancomycin-resistant Staphylococcus aureus (VRSA) strain were obtained through the Network of Antimicrobial Resistance in Staphylococcus aureus (NARSA) program. In addition, vancomycin-resistant Enterococcus faecium (VRE) strain was obtained from the ATCC. Bacteria” for “Bacteria”
The minimum inhibitory concentration (MIC) of tested compounds and control antibiotics were determined using the broth microdilution method in accordance with the recommendations contained in the Clinical and Laboratory Standards Institute guidelines, against methicillin-sensitive (ATCC 6538 and NRS107), methicillin-resistant (MRSA), and vancomycin-resistant (VRSA) Staphylococcus aureus, Staphylococcus epidermidis, Enterococcus faecalis, E. faecium, Listeria monocytogenes, and Streptococcus pneumoniae clinical isolates. A bacterial solution equivalent to 0.5 McFarland standard was prepared and diluted in cation-adjusted Mueller-Hinton broth (CAMHB) to achieve a bacterial concentration of about 5×10^5 CFU/mL and seeded in 96-well plates. Enterococcus faecium was diluted in brain heart infusion broth. Enterococcus faecalis, Streptococcus pneumonia and Listeria monocytogenes were diluted in tryptone soya broth (TSB). Compounds and control drugs were added in the first row of 96-well plates and serially diluted (to achieve a concentration gradient ranging from 128 to 1 μg/mL). Plates were then incubated aerobically at 37° C. for at least 18 hours. The minimum bactericidal concentration (MBC) of the active compounds was tested by plating 5 μL from wells with no growth onto Tryptic soy agar (TSA) plates.

[2] = Plasma pharmacokinetics after single oral dose in rats; type: in vivo, Sprague-Dawley (SD) rats
Experimental: This assay has been conducted at a credited bioequivalence center (http://www.grc-me.com/pk_pd.html). Pharmacokinetic studies were performed in male naïve Sprague-Dawley (SD) rats, (three animals) following Institutional Animal Care and Use Committee guidelines. Oral dosing was administered by gavage in a vehicle containing 5% ethanol, 45% PEG 400, and 50% water. Blood samples were collected over a 24 h period post dose into Vacutainer tubes containing EDTA-K2. Plasma was isolated, and the concentration of compound 17 in plasma was determined with LC/MS/MS after protein precipitation with acetonitrile.
Non-compartmental pharmacokinetic analysis was performed on plasma concentration data to calculate pharmacokinetic parameters using Kinetica® 2000 (release 4.4.1).

MRSA (USA300) = assay: Time-kill assay; type: cell-based, Staphylococcus aureus; conditions: MRSA US300, 3.0×MIC
Experimental: Aliquots (100 μL) were taken from each sample after 2, 4, 6, 8, 10, 12, and 24 hours, serially diluted in phosphate-buffered saline, and transferred to Trypticase soy agar (TSA) (Becton, Dickinson and Company, Sparks, Md., USA) plates. Plates were incubated at 37° C. for at least 16 hours before counting viable CFU/mL to determine the time required to reduce the bacterial cell count by 3-log10.

[3] = Table 6, single oral dose (30 mg/Kg) to rats
[4] = male, Sprague-Dawley, rat, plasma, Table 6, single oral dose (30 mg/Kg) to rats

For `CCCCc1ccc(-c2nc(C)c(-c3ccnc(NN)n3)s2)cc1` [Compound 17, 2-(4-Butylphenyl)-5-(2-hydrazinopyrimidin-4-yl)-4-methylthiazole], the “improvement in MIC value compared with lead compound 1” value (MRSA (2658 RCMB); MRSA (2658 RCMB)) was 12 fold, the MIC (MRSA (2658 RCMB); Staphylococcus aureus, Table 1, MRSA (2658 RCMB), read-out: MIC ± SD) was 0.4 µg/mL (≈ 1.18 µM) and the “antibacterial (anti-MRSA) activity, in words” value (MRSA (2658 RCMB); Table 1) was “more potent than vancomycin”. For the same molecule, the “MIC ± SD” value (MRSA (2658 RCMB); Table 1, MRSA (2658 RCMB)) was 0.40 ± 0.0 µg/mL (≈ 1.18 µM), the microsomal CLint ([1]; NADPH omitted, read-out: NADPH-free Clint) was 0.5 µL/min/mg and the half-life ([1]; NADPH omitted, read-out: NADPH-free t1/2) was over 1 h. The microsomal CLint ([1]; with NADPH, read-out: NADPH-dependent CLint) was 3 to 7.5 µL/min/mg, the half-life ([1]; with NADPH, read-out: NADPH-dependent t1/2) was 5.13 h and the MBC (NRS119 (MRSA)) was 2 µg/mL (≈ 5.89 µM). For the same molecule, the MIC (NRS119 (MRSA); read-out: MIC) was 2 µg/mL (≈ 5.89 µM), the MBC (NRS123 (MRSA USA400)) was 2 µg/mL (≈ 5.89 µM) and the MIC (NRS123 (MRSA USA400); read-out: MIC) was 2 µg/mL (≈ 5.89 µM). The MBC (NRS382 (MRSA USA100)) was 4 µg/mL (≈ 11.8 µM), the MIC (NRS382 (MRSA USA100); read-out: MIC) was 2 µg/mL (≈ 5.89 µM) and the MBC (NRS383 (MRSA USA200)) was 2 µg/mL (≈ 5.89 µM). For the same molecule, the MIC (NRS383 (MRSA USA200); read-out: MIC) was 2 µg/mL (≈ 5.89 µM), the MBC (NRS384 (MRSA USA300)) was 2 µg/mL (≈ 5.89 µM) and the MIC (NRS384 (MRSA USA300); read-out: MIC) was 2 µg/mL (≈ 5.89 µM). For the same molecule, the MBC (VRSA10; read-out: MBC) was 2 µg/mL (≈ 5.89 µM), the MIC (VRSA10; read-out: MIC) was 1 µg/mL (≈ 2.95 µM) and the thalf [2, 3] was 8.24 h. It also gave a λz [2, 3] of 0.19 h⁻¹, an MRT ([2]; male, Sprague-Dawley, rat, plasma, po, text b112, SD rats, 50 mg/Kg orally, read-out: in vivo mean residence time (MRT)) of about 8 h and an AUC [2, 4] of 100000 ng·h/mL. For the same molecule, the AUC(0-t) [2, 4] was 83200 ng·h/mL, the Tmax [2, 4] was 4.67 h and the MRT ([2]; male, Sprague-Dawley, rat, plasma, Table 6, single oral dose (30 mg/Kg) to rats, read-out: MRT (mean residence time)) was 7.74 h. For the same molecule, the Cmax ([2]; male, Sprague-Dawley, rat, po, text b112, SD rats, 50 mg/Kg orally, plasma) was 9300 ng/mL, the Cmax ([2]; male, Sprague-Dawley, rat, Table 6, single oral dose (30 mg/Kg) to rats, plasma) was 9330 ng/mL and the “time required to reduce the MRSA inoculum to zero colony forming units” value (MRSA (USA300)) was at most 2 h.

Source: patent US10414759B2, “Phenylthiazoles and uses thereof” (Purdue Research Foundation, priority 2017, dated 2019)
